Experimental data from paper PMC6895048, “4,5-Disubstituted 1,2,3-triazoles: Effective Inhibition of Indoleamine 2,3-Dioxygenase 1 Enzyme Regulates T cell Activity and Mitigates Tumor Growth” (Scientific Reports, 2019).
Values joined by “and” are separate entries in the source; they are usually repeats but may differ in a detail not shown here. Equal entries are not always repeated.

Legend:
IDO1 = IDO1 (Homo sapiens, UniProt P14902); test: Determination of mode of enzyme inhibition (Lineweaver-Burk); type: biochemical; parameters: made in house; host or cells: Escherichia coli M15 (pQE30 vector with pREP4 plasmid); conditions: for Ki: Km = 59.76 µM and Kcat = 6.18 sec-1; for Mode of IDO1 inhibition: with respect to L-Trp
Sequence of IDO1 (P14902 whole entry): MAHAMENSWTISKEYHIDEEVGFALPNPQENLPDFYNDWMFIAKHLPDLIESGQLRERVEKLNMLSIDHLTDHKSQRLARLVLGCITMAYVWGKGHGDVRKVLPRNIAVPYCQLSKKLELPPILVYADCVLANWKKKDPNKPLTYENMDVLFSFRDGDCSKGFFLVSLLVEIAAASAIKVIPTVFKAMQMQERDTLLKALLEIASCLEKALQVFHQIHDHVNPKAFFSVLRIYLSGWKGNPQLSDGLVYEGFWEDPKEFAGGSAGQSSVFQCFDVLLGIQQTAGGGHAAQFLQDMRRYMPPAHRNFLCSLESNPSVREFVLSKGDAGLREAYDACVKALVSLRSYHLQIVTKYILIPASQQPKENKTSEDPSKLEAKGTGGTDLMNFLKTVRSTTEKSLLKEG
Protocol: The mode of IDO1 enzyme inhibition was measured according to the reported spectrophotometric method. The assay was performed by varying both tryptophan concentration from 50 to 150 µM and inhibitor concentration from 32 nM to 4 µM. The amount of formation of N-formylkynurenine was recorded at different time intervals. The mode of enzyme inhibition was determined from the plot of 1/V against 1/[S], where V is the initial rate of the enzymatic reaction and [S] is the L-Trp concentration.

CD8+ T cells = test: T cell activity in breast tumor micro-environment (flow cytometry); type: cell-based, human; conditions: 50 μM; for regulation of CD8+ T cells in tumor micro-environment: 20% MDA-MB-231 conditioned medium, 48 hours; for regulation of effector memory CD8+ T cells in tumor micro-environment: CCR7lowCD45RAlow phenotype
Protocol: We designed this study to evaluate the effects of IDO1 inhibition on cytotoxic T cells present in the breast tumor micro-environment. To mimic breast tumor micro-environment, we used 20% conditioned medium of human metastatic breast cancer cell line MDA-MB-231 with fresh RPMI and 10% FBS. Freshly isolated PBL cells were stimulated with PMA and ionomycin prior to culture in 20% conditioned medium and compounds at selected concentrations. Drug treatment was done for 48 hours followed by immunophenotyping by flow cytometry. For cell proliferation experiments freshly isolated PBLs were cultured in RPMI with 10% FBS and inhibitors for 48 hours. After that the cells were counted with hemocytometer. All the experiments were repeated thrice before analyzing data. The concentration of the compounds was 50 μM for all the T cell activity studies. All the T cell culture related experiments were conducted in the designated biosafety level facility available at the University of Calcutta.
Peripheral blood lymphocyte was isolated from freshly isolated blood samples of healthy volunteers in a previously described protocol. Briefly, blood was diluted with equal volume of sterile PBS and allowed in density gradient centrifugation over histopaque. Isolated PBLs were washed and cultured in RPMI medium with 10% FBS. Peripheral blood lymphocytes (PBLs) were isolated from fresh blood of healthy volunteers and cultured in RPMI medium with or without compound at selected concentration for 48 hours. Treatment of the compound uplifted cell proliferation. To evaluate whether 4,5-disubstituted 1,2,3-triazole regulate T cell activity, PBL was isolated and cultured at 20% conditioned medium of human metastatic breast cancer cell line MDA-MB-231. To perform this experiment PBL was isolated from three healthy volunteers and three independent experiments were performed. All the volunteers signed informed consent form[45],[49].
The T cells were activated according to standardized protocol published elsewhere. 100 ng/mL PMA and 1 μg/mL ionomycin were used to stimulate the T cells for 2 hrs. PBLs freshly cultured in RPMI with 10% FBS was added in the culture plate at 2 × 10^5 cells/ well and cultured at 37 °C with 5% CO2 for the duration of activation.
After treatment for given period of time the lymphocytes were analyzed for alteration of protein expression by flow cytometry according to previously published protocols. Briefly the cells were pelleted down resuspended in cell staining buffer. After cell counting cells were stained against PE-CD8 (Miltenyi Bioteh.), PerCP-Cy 5.5-CCR-7 (Miltenyi Bioteh.), APC-CD45RA (Miltenyi Bioteh.), VioBright-FITC-PD-1 (Miltenyi Bioteh.) antibodies as per the manufacturer recommended concentration and incubated in ice for given period of time. Post incubation, the cells were washed, suspended in cell staining buffer before data was acquired using FACS-Verse flow cytometer. The results were analyzed with FlowJo software (v X.0.7). The experiments were repeated thrice prior data analysis.

EAC solid tumor = EAC solid tumor model in vivo; parameters: species or system female Swiss albino mice; conditions: for tumor growth inhibition (TGI): 5 mg/kg body weight, intravenously at alternate days, female Swiss albino mice; for CD8+ T cell population in vivo solid tumors: flow cytometry of tumor tissue post sacrifice
Protocol: Female Swiss albino mice of age 6 weeks (weight = 20 gm) were selected for the experiments. Animals were housed in animal facility room, Department of Zoology, University of Calcutta at 25 ± 2 °C, relative humidity of nearly 45 ± 5% with alternative 12 hours day/ night cycle with access of food and water. All the experiments were carried out as per guideline of the Committee for the Purpose of Control and Supervision of Experimental Animals (CPCSEA), Government of India (Registration No: 885/GO/Re/S/05/CPCSEA) and approved by the Institutional animal ethical committee (IAEC), University of Calcutta.
Ehrlich ascites carcinoma (EAC) cells were maintained in the ascetic form in female Swiss albino mice by intraperitoneal transplantation every 10th day on each mice. The ascetic fluid was drawn on 7th day on implantation according to previously described protocol. Isolated cells were diluted in sterile PBS. 2 × 10^6 cells were then implanted on thigh muscle of all the animals selected for experiment.
Female Swiss albino mice were divided into four groups (n = 6 each group). Post inoculation of the cells in thigh muscle on day 0 mice in their respective group was allowed to treat for 5 days on every alternate day at treatment of 5 mg/ kg body weight described below. All the mice were sacrificed on day 10.
Tumor tissues post sacrifice were digested in collagenase IV medium for 2 hours. The tissues were passed through wire mesh and single-cell strainer. Then the cells were washed in PBS, and immunophenotyping was performed, and cells were stained against APC-CD8 for finding infiltrated CD8 T cell populations by flow cytometry analysis.

O=C(N/C(Cc1ccc(O)cc1)=N\O)c1n[nH]nc1-c1ccc(F)c(F)c1 [Compound 4i]
Ki (IDO1): 0.258 ± 0.022 µM | Mode of IDO1 inhibition (IDO1): competitive | PD-1 expression on CD8+ T cells in tumor micro-environment (CD8+ T cells): Down-regulation | regulation of CD8+ T cells in tumor micro-environment (CD8+ T cells): Up-regulation | regulation of effector memory CD8+ T cells in tumor micro-environment (CD8+ T cells): Up-regulation | tumor growth inhibition (TGI) (EAC solid tumor): 79–96% | CD8+ T cell population in vivo solid tumors (EAC solid tumor): induces CD8+ T cell population

NS(=O)(=O)NCCNC(=O)c1n[nH]nc1-c1ccc(F)c(F)c1 [Compound 4k]
Ki (IDO1): 0.098 ± 0.011 µM | Mode of IDO1 inhibition (IDO1): competitive | PD-1 expression on CD8+ T cells in tumor micro-environment (CD8+ T cells): Down-regulation | regulation of CD8+ T cells in tumor micro-environment (CD8+ T cells): Up-regulation | regulation of effector memory CD8+ T cells in tumor micro-environment (CD8+ T cells): Up-regulation | tumor growth inhibition (TGI) (EAC solid tumor): 79–96% | CD8+ T cell population in vivo solid tumors (EAC solid tumor): induces CD8+ T cell population

NC(=O)c1n[nH]nc1-c1ccc(F)c(F)c1 [Compound 3i]
Ki (IDO1): 0.16 ± 0.015 µM | Mode of IDO1 inhibition (IDO1): competitive | PD-1 expression on CD8+ T cells in tumor micro-environment (CD8+ T cells): Down-regulation | regulation of CD8+ T cells in tumor micro-environment (CD8+ T cells): Up-regulation | regulation of effector memory CD8+ T cells in tumor micro-environment (CD8+ T cells): Up-regulation | tumor growth inhibition (TGI) (EAC solid tumor): 79–96% and 96% | CD8+ T cell population in vivo solid tumors (EAC solid tumor): induces CD8+ T cell population

CCOC(=O)c1n[nH]nc1-c1ccc(F)c(F)c1 [Compound 2i]
Ki (IDO1): 0.241 ± 0.038 µM | Mode of IDO1 inhibition (IDO1): competitive | PD-1 expression on CD8+ T cells in tumor micro-environment (CD8+ T cells): Down-regulation | regulation of CD8+ T cells in tumor micro-environment (CD8+ T cells): Up-regulation | regulation of effector memory CD8+ T cells in tumor micro-environment (CD8+ T cells): Up-regulation
